Laboratory results taken from patent publication US8927559B2, “Quinazolinone-type compounds as CRTH2 antagonists” (Merck Sharp & Dohme Corp., priority 2010, dated 2015).
Values joined by “and” are separate entries in the source; they are usually repeats but may differ in a detail not shown here. Equal values may be shown once.

molecular target: T1, CRTH2 receptor (hCRTH2) (Homo sapiens, UniProt Q9Y5Y4); test: Radioligand binding assay ([3H]PGD2 competition, membranes of HEK-hCRTH2 cell line); details: 3.0 nM [3H]PGD2, HEK-hCRTH2 membranes, 60 min, room temperature; read-out: Ki
T1 construct: expressed in transfected cells; host or cells: HEK cells (HEK-hCRTH2 cell line), membranes
T1 sequence (Q9Y5Y4 1-395): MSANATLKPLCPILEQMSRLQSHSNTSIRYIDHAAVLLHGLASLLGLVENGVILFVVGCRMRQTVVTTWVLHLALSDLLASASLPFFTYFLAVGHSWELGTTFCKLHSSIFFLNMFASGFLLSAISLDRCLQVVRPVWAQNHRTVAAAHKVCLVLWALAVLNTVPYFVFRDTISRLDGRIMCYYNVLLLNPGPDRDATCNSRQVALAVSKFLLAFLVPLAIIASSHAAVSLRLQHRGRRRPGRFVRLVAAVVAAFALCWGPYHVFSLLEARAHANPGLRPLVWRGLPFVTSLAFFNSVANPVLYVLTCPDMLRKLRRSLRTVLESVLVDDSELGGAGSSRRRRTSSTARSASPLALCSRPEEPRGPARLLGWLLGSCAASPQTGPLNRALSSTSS
Procedure: Competing ligands were diluted in dimethylsulfoxide (Me2SO) that was kept constant at 1% (v/v) of the final incubation volume. The reaction was initiated by the addition of 8-20 μg of membrane protein prepared from a HEK-hCRTH2 cell line. Total and non-specific binding were determined in the absence and the presence of […] PGD2, respectively. […] The reaction was routinely conducted for 60 min at room temperature and terminated by rapid filtration through prewetted (0.3% polyethyleneimine) 96-well printed filtermate (Wallac) using a Tomtec harvester. After washing with cold buffer, the filter was dried for 2 minutes in microwave, and Meltilex Scintillator sheet (Wallac) was melted on for 2 min.

Ki	Compound
10 to 50 nM	O=C(O)CCCCc1nc2cc(C3=NOC(c4nc5ccccc5o4)C3)ccc2c(=O)n1-c1ccc(F)cc1 (single isomer, unassigned) [Example 28D, 5-(7-(5-(benzo[d]oxazol-2-yl)-4,5-dihydroisoxazol-3-yl)-3-(4-fluorophenyl)-4-oxo-3,4-dihydroquinazolin-2-yl)pentanoic acid]
≤ 10 nM	O=C(O)CCCCc1nc2cc(C3=NOC(c4nc5ccccc5o4)C3)ccc2c(=O)n1-c1ccc(F)cc1 (single isomer, unassigned) [Example 28E, 5-(7-(5-(benzo[d]oxazol-2-yl)-4,5-dihydroisoxazol-3-yl)-3-(4-fluorophenyl)-4-oxo-3,4-dihydroquinazolin-2-yl)pentanoic acid]
≤ 10 nM	CC(c1ccccc1)C1(C)CC(c2ccc3c(=O)n(-c4ccc(F)cc4)c(CCCCC(=O)O)nc3c2)=NO1 (single isomer, unassigned) [Example 42, 5-(3-(4-fluorophenyl)-7-(5-methyl-5-(1-phenylethyl)-4,5-dihydroisoxazol-3-yl)-4-oxo-3,4-dihydroquinazolin-2-yl)pentanoic acid]
≤ 10 nM	CC(c1ccccc1)C1(C)CC(c2ccc3c(=O)n(-c4ccc(F)cc4)c(CCCCC(=O)O)nc3c2)=NO1 (single isomer, unassigned) [Example 42E, 5-(3-(4-fluorophenyl)-7-(5-methyl-5-(1-phenylethyl)-4,5-dihydroisoxazol-3-yl)-4-oxo-3,4-dihydroquinazolin-2-yl)pentanoic acid]
≤ 10 nM	CC(c1ccccc1)C1(C)CC(c2ccc3c(=O)n(-c4ccc(F)cc4)c(CCCCC(=O)O)nc3c2)=NO1 (single isomer, unassigned) [Example 42F, 5-(3-(4-fluorophenyl)-7-(5-methyl-5-(1-phenylethyl)-4,5-dihydroisoxazol-3-yl)-4-oxo-3,4-dihydroquinazolin-2-yl)pentanoic acid]
10 to 50 nM	CC(c1ccccc1)C1(C)CC(c2ccc3c(=O)n(-c4ccc(F)cc4)c(CCCCC(=O)O)nc3c2)=NO1 (single isomer, unassigned) [Example 42G, 5-(3-(4-fluorophenyl)-7-(5-methyl-5-(1-phenylethyl)-4,5-dihydroisoxazol-3-yl)-4-oxo-3,4-dihydroquinazolin-2-yl)pentanoic acid]
≤ 10 nM	O=C(O)CCCCc1nc2cc(C3=NOC4(CC[C@H](c5ccccc5)C4)C3)ccc2c(=O)n1-c1ccc(F)cc1 (single isomer, unassigned) [Example 139]
≤ 10 nM	O=C(O)CCCCc1nc2cc(C3=NOC4(CC[C@@H](c5ccccc5)C4)C3)ccc2c(=O)n1-c1ccc(F)cc1 (single isomer, unassigned) [Example 141]
≤ 10 nM	O=C(O)CCCCc1nc2cc(C3=NOC(c4ccccc4)C3)ccc2c(=O)n1-c1ccc(Cl)cc1 (stereo not drawn) [Example 15K]
≤ 10 nM	O=C(O)CCCCc1nc2cc(C3=NOC(c4ccccn4)C3)ccc2c(=O)n1-c1ccc(Cl)cc1 (stereo not drawn) [Example 15L]
≤ 10 nM	O=C(O)CCCCc1nc2cc(C3=NOC(c4ccncc4)C3)ccc2c(=O)n1-c1ccc(Cl)cc1 (stereo not drawn) [Example 15M]
≤ 10 nM	COc1cccc(C2CC(c3ccc4c(=O)n(-c5ccc(F)cc5)c(CCCCC(=O)O)nc4c3)=NO2)c1 (stereo not drawn) [Example 15N]
≤ 10 nM	O=C(O)CCCCc1nc2cc(C3=NOC(c4cccc(Cl)c4)C3)ccc2c(=O)n1-c1ccc(F)cc1 (stereo not drawn) [Example 15P]

Second part, the molecule before the results:

Compound	Ki
O=C(O)CSc1nc2cc(-c3cscn3)ccc2c(=O)n1-c1ccc(F)cc1 [Example 1K]	10 to 50 nM
O=C(O)CCCCc1nc2cc(-c3cc(C4CC4)on3)ccc2c(=O)n1-c1ccc(F)cc1 [Example 5J]	10 to 50 nM
O=C(O)CCCCc1nc2cc(-c3ccon3)ccc2c(=O)n1-c1ccc(F)cc1 [Example 5K]	10 to 50 nM
O=C(O)CCCCc1nc2cc(-c3cc(C(F)(F)F)on3)ccc2c(=O)n1-c1ccc(F)cc1 [Example 5M]	≤ 10 nM
O=C(O)CCCCc1nc2cc(-c3cc(-c4ccc(F)cc4)on3)ccc2c(=O)n1-c1ccc(F)cc1 [Example 5N]	≤ 10 nM
O=C(O)CCCCc1nc2cc(-c3cc(C(=O)C4CC4)on3)ccc2c(=O)n1-c1ccc(F)cc1 [Example 5Q]	10 to 50 nM
Cc1cc(-c2ccc3c(=O)n(-c4ccc(F)cc4)c(CCCCC(=O)O)nc3c2)no1 [Example 5i]	10 to 50 nM
O=C(O)CCCCc1nc2cc(-c3cc(C4CC4)no3)ccc2c(=O)n1-c1ccc(F)cc1 [Example 8C, 5-(7-(3-Cyclopropylisoxazol-5-yl)-3-(4-fluorophenyl)-4-oxo-3,4-dihydroquinazolin-2-yl)pentanoic acid]	10 to 50 nM
Cc1cc(-c2ccc3c(=O)n(-c4ccc(F)cc4)c(CCCCC(=O)O)nc3c2)on1 [Example 8D]	≤ 10 nM
Cn1cc(-c2ccc3c(=O)n(-c4ccc(F)cc4)c(CCCCC(=O)O)nc3c2)nn1 [Example 9, 5-(3-(4-Fluorophenyl)-7-(1-methyl-1H-1,2,3-triazol-4-yl)-4-oxo-3,4-dihydroquinazolin-2-yl)pentanoic acid]	≤ 10 nM
Cc1cc(-c2ccc3c(=O)n(-c4ccc(C(F)(F)F)cc4)c(CCCCC(=O)O)nc3c2)no1 [Example 13, 5-{7-(5-Methylisoxazol-3-yl)-4-oxo-3-[4-(trifluoromethyl)phenyl]-3,4-dihydroquinazolin-2-yl}pentanoic acid]	≤ 10 nM
O=C(O)CCCCc1nc2cc(-c3noc(-c4ccncc4)n3)ccc2c(=O)n1-c1ccc(F)cc1 [Example 14, 5-{3-(4-fluorophenyl)-4-oxo-7-[5-(pyridin-4-0)-1,2,4-oxadiazol-3-yl]-3,4-dihydroquinazolin-2-yl}pentanoic acid]	10 to 50 nM and 17.2 nM
CC(C)(C)c1ccc(-c2nc(-c3ccc4c(=O)n(-c5ccc(F)cc5)c(CCCCC(=O)O)nc4c3)no2)cc1 [Example 14C]	10 to 50 nM
O=C(O)CCCCc1nc2cc(C3=NOC(c4ccccc4)C3)ccc2c(=O)n1-c1ccc(F)cc1 (stereo not drawn) [Example 15, 5-(3-(4-fluorophenyl)-4-oxo-7-(5-phenyl-4,5-dihydroisoxazol-3-yl)-3,4-dihydroquinazolin-2-yl)pentanoic acid]	10 to 50 nM
O=C(O)CCCCc1nc2cc(C3=NOC(c4ccccn4)C3)ccc2c(=O)n1-c1ccc(F)cc1 (stereo not drawn) [Example 15G]	10 to 50 nM
O=C(O)CCCCc1nc2cc(C3=NOC(c4ccncc4)C3)ccc2c(=O)n1-c1ccc(F)cc1 (stereo not drawn) [Example 15H]	10 to 50 nM

same assay, conditions: Ki, 3.0 nM [3H]PGD2, HEK-hCRTH2 membranes, 60 min, room temperature

Compound	Ki
CC1(c2nc3ccccc3o2)CC(c2ccc3c(=O)n(-c4ccc(F)cc4)c(CCCCC(=O)O)nc3c2)=NO1 (single isomer, unassigned) [Example 35, 5-(7-(5-(benzo[d]oxazol-2-yl)-5-methyl-4,5-dihydroisoxazol-3-yl)-3-(4-fluorophenyl)-4-oxo-3,4-dihydroquinazolin-2-yl)pentanoic acid]	≤ 10 nM
CC1(c2nc3ccccc3o2)CC(c2ccc3c(=O)n(-c4ccc(F)cc4)c(CCCCC(=O)O)nc3c2)=NO1 (single isomer, unassigned) [Example 35G, 5-(7-(5-(benzo[d]oxazol-2-yl)-5-methyl-4,5-dihydroisoxazol-3-yl)-3-(4-fluorophenyl)-4-oxo-3,4-dihydroquinazolin-2-yl)pentanoic acid]	10 to 50 nM
CC1(c2ccccc2)CC(c2ccc3c(=O)n(-c4ccc(F)cc4)c(CCCCC(=O)O)nc3c2)=NO1 (stereo not drawn) [Example 15E]	10 to 50 nM
CC1(c2ccccc2)CC(c2ccc3c(=O)n(-c4ccc(F)cc4)c(CCCCC(=O)O)nc3c2)=NO1 (stereo not drawn) [Example 15F]	≤ 10 nM
